This assay deals with VR1 (Homo sapiens, UniProt Q8NER1). Nature of the assay: Calcium uptake assay, low pH (proton) stimulus. The class given is cell-based. Details: expressed in transfected cells; host or cells: T-REx HEK 293 (Invitrogen), pcDNA5/TO vector. The conditions noted are these: 0.3 μM compound, low pH agonist, HEK 293 cells expressing hVR1; for inhibition at 0.3 µM: HEK293, read-out: Low pH % Inhib. @ 0.3 μM.
VR1, sequence (Q8NER1 whole entry): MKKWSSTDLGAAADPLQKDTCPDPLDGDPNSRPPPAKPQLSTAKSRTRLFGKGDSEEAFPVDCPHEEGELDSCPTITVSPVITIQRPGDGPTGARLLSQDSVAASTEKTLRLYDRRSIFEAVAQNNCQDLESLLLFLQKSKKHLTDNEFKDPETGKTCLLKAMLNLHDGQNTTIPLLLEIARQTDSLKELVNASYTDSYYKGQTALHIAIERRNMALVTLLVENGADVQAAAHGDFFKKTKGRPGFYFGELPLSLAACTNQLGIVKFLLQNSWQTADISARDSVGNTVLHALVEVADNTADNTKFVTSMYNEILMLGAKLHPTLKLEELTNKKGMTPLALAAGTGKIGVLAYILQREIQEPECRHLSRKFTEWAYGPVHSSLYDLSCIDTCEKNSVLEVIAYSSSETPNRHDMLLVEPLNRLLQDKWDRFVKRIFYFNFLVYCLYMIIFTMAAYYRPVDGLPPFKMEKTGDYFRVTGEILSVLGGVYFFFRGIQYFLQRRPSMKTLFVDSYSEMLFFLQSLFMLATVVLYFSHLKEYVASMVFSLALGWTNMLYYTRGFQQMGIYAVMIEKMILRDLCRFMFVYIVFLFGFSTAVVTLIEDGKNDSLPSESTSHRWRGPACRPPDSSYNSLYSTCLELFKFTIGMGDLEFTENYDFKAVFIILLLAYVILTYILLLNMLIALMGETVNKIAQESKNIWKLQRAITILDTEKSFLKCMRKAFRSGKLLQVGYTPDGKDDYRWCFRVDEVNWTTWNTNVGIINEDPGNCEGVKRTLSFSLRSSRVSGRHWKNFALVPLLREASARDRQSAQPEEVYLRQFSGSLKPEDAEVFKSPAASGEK

`O=C(Nc1ccc2c(c1)OCC(CO)O2)c1ccc(/C=C/C(F)(F)F)cc1` (single isomer, unassigned) [Compound 108]: the “Low pH % Inhib. @ 0.3 μM” value was found to be 116%. On to `CC(C)(C)/C=C/c1ccc(C(=O)Nc2ccc3c(c2)OCCO3)cc1` [Compound 1], for which the inhibition at 0.3 µM was 83%. Still for that read-out and setting: to `CC(C)/C=C/c1ccc(C(=O)Nc2ccc3c(c2)OCCO3)cc1` [Compound 8] belongs 26%; to `CC(C)/C=C/c1ccc(C(=O)Nc2ccc3[nH]ccc3c2)cc1` [Compound 9], 37%. The same measure, in the same setting: the value for `CC(C)/C=C/c1ccc(C(=O)Nc2ccc3ncccc3c2)cc1` [Compound 11] was 34%; that for `CC(C)/C=C/c1ccc(C(=O)Nc2ccc3c(c2)Cc2ccccc2-3)cc1` [Compound 13] was 11%. Still for that read-out and setting: to `C/C(=C/C(C)(C)C)c1ccc(C(=O)Nc2ccc3[nH]ccc3c2)cc1` [Compound 16] belongs 21%; to `C/C(=C/C(C)(C)C)c1ccc(C(=O)Nc2ccc3ncccc3c2)cc1` [Compound 18], 12%; to `CCn1c2ccccc2c2cc(NC(=O)c3ccc(/C(C)=C\C(C)(C)C)cc3)ccc21` [Compound 19], 14%.

Consider `CC(C)(C)C#Cc1ccc(C(=O)Nc2cccc3cnccc23)cn1` [Compound 23], for which the inhibition at 0.3 µM amounted to 98%. On to `CC(C)(C)C#Cc1ccc(C(=O)Nc2cnc3ccccc3c2)cc1` [Compound 24], for which the inhibition at 0.3 µM is 101%. Still for that read-out and setting: to `Cn1ccc2cc(NC(=O)c3ccc(C#CC(C)(C)C)nc3)ccc21` [Compound 25] belongs 105%; to `CC(C)(C)C#Cc1ccc(C(=O)Nc2ccc3c(c2)OCO3)cn1` [Compound 26], 104%; to `CC(C)(C)C#Cc1ccc(C(=O)Nc2ccc3c(c2)OCO3)cc1` [Compound 28], 102%. On the same count and under the same terms, to `CC(C)(C)C#Cc1ccc(C(=O)Nc2ccc3c(c2)OCCO3)cc1` [Compound 30] belongs 105%. In the case of `CC(C)(C)C#Cc1ccc(C(=O)Nc2cnc3ccccc3c2)cc1` [Compound 32], the “Low pH % Inhib. @ 0.3 μM” value is 101%. For the compound `Cn1ccc2cc(NC(=O)c3ccc(C#CC(C)(C)C)cc3)ccc21` [Compound 33], the inhibition at 0.3 µM turned out to be 105%. For the compound `Cn1ccc2cc(NC(=O)c3ccc(/C=C/C(F)(F)F)cc3)ccc21` [Compound 37], the inhibition at 0.3 µM worked out at 17%. Same read-out and setting: to `CC(C)(C)/C=C/c1ccc(C(=O)Nc2cccc3cnccc23)cc1` [Compound 40] belongs 86%.

In the case of `CC(C)(C)/C=C/c1ccc(C(=O)Nc2cnc3ccccc3c2)cc1` [Compound 41], the inhibition at 0.3 µM was 101%.

With `Cn1ccc2cc(NC(=O)c3ccc(/C=C/C(C)(C)C)cc3)ccc21` [Compound 42], the inhibition at 0.3 µM was 98%.

With `O=C(Nc1ccc2c(c1)OCCO2)c1ccc(C#CC(F)(F)F)cc1` [Compound 43], the inhibition at 0.3 µM came out at 105%. Take `Cn1ccc2ccc(NC(=O)c3ccc(C#CC(C)(C)C)nc3)cc21` [Compound 44]: the inhibition at 0.3 µM was 87%. The same measure, in the same setting: the value for `O=C(Nc1cnc2ccccc2c1)c1ccc(C#CC2CC2)cc1` [Compound 47] was 55%; that for `O=C(Nc1ccc2c(c1)OCCO2)c1ccc(C#CC2CC2)cc1` [Compound 49] was 96%; that for `CC(C)(C)C#Cc1ccc(C(=O)Nc2ccc3c(c2)OC(F)(F)O3)cc1` [Compound 50] was 5%. The same measure, in the same setting: to `Cc1nc2cc(NC(=O)c3ccc(/C=C/C(F)(F)F)cc3)ccc2s1` [Compound 53] belongs 81%; to `O=C(Nc1ccc2sc(CO)nc2c1)c1ccc(C#CC(F)(F)F)cc1` [Compound 54], 76%; to `O=C(Nc1ccc2sc(CO)nc2c1)c1ccc(/C=C/C(F)(F)F)cc1` [Compound 55], 101%. As to `Cc1nc2cc(NC(=O)c3ccc(C#CC(C)(C)C)cc3)ccc2s1` [Compound 56], the inhibition at 0.3 µM was 104%. Same read-out and setting: the value for `CC(C)(C)C#Cc1ccc(C(=O)Nc2cccc3cnccc23)c(Cl)n1` [Compound 66] was 10%.

As for `CC(C)(C)C#Cc1ccc(C(=O)Nc2ccc3c(c2)N(CCN2CCOCC2)CC3(C)C)cc1` [Compound 67], the inhibition at 0.3 µM was 8%.

Regarding `CC(=O)N1CC(C)(C)c2ccc(NC(=O)c3ccc(C#CC(C)(C)C)cc3)cc21` [Compound 68], the inhibition at 0.3 µM is 140%.

As to `CC(C)(C)C#Cc1ccc(C(=O)Nc2ccc3c(c2)NCC3(C)C)cc1` [Compound 69], the inhibition at 0.3 µM amounted to 103%. The same measure, in the same setting: the value for `O=C(Nc1ccc2c(c1)OCCN2)c1ccc(C#CC(F)(F)F)cc1` [Compound 70] was 185%; that for `CC1(C)Oc2cc(NC(=O)c3ccc(/C=C/C(F)(F)F)cc3)ccc2NC1=O` [Compound 71] was 10%; that for `CC1(C)CNc2ccc(NC(=O)c3ccc(/C=C/C(F)(F)F)cc3)cc2O1` [Compound 72] was 124%.

`CN1CCOc2cc(NC(=O)c3ccc(/C=C/C(F)(F)F)cc3)ccc21` [Compound 73]: the inhibition at 0.3 µM was found to be 94%. Same read-out and setting: to `Cc1cc(C(=O)Nc2cccc3cnccc23)ccc1C#CC(F)(F)F` [Compound 75] belongs 102%. Turning to `CC(=CC(F)(F)F)c1ccc(C(=O)Nc2cccc3cnccc23)cc1` [Compound 76], the inhibition at 0.3 µM turned out to be 88%.

With `Cc1cc(/C=C/C(F)(F)F)ccc1C(=O)Nc1cccc2cnccc12` [Compound 77], the inhibition at 0.3 µM was determined as 90%. On the same count and under the same terms, to `CN1C(=O)C(C)(C)Oc2ccc(NC(=O)c3ccc(/C=C/C(F)(F)F)cc3)cc21` [Compound 78] belongs 32%; to `CN1CCCc2ccc(NC(=O)c3ccc(C#CC4CC4)cc3)cc21` [Compound 80], 92%. For `CC(C)(C)C#Cc1ccc(C(=O)Nc2ccc3c(c2)OCC(CO)O3)cc1` (centres unmarked) [Compound 81], the inhibition at 0.3 µM is 98%. Still for that read-out and setting: to `CC(C)(C)C#Cc1ccc(C(=O)Nc2ccc3c(c2)OC(CO)CO3)cc1` (centres unmarked) [Compound 82] belongs 76%; to `CN1C(=O)COc2ccc(NC(=O)c3ccc(/C=C/C(F)(F)F)cc3)cc21` [Compound 84], 45%; to `CN1CCCc2ccc(NC(=O)c3ccc(C#CC(C)(C)C)nc3)cc21` [Compound 85], 34%.

As to `O=C(Nc1ccc2c(c1)OC(CO)CO2)c1ccc(C#CC2CC2)cc1` (centres unmarked) [Compound 86], the inhibition at 0.3 µM amounted to 83%. Take `O=C(Nc1ccc2c(c1)OCC(CO)O2)c1ccc(C#CC2CC2)cc1` (centres unmarked) [Compound 87]: the inhibition at 0.3 µM was found to be 98%. For the compound `CN1CCOc2ccc(NC(=O)c3ccc(/C=C/C(F)(F)F)cc3)cc21` [Compound 88], the inhibition at 0.3 µM was 48%. Still for that read-out and setting: the value for `CC(C)(C)C#Cc1ccc(C(=O)Nc2cccc3cnccc23)nc1` [Compound 91] was 21%.

Consider `O=C(Nc1ccc2c(c1)S(=O)(=O)C=C2)c1ccc(/C=C/C(F)(F)F)cc1` [Compound 92], for which the inhibition at 0.3 µM came out at 71%. The same measure, in the same setting: to `O=C(Nc1ccc2c(c1)OCC(CO)O2)c1ccc(/C=C/C(F)(F)F)cc1` (centres unmarked) [Compound 97] belongs 101%. `CN1CCCc2ccc(NC(=O)c3ccc(C#CC4CCCC4)cc3)cc21` [Compound 98]: the inhibition at 0.3 µM is 78%. Take `C/C(=C\C(F)(F)F)c1ccc(C(=O)Nc2ccc3c(c2)OCCO3)cc1` [Compound 99]: the inhibition at 0.3 µM came to 94%. `O=C(Nc1ccc2c(c1)OCCO2)c1ccc(C#CC2CCCC2)cc1` [Compound 100]: the inhibition at 0.3 µM was 42%.

With `O=C(Nc1cccc2cnccc12)c1ccc(C#CC2CCCC2)cc1` [Compound 101], the inhibition at 0.3 µM was found to be 94%. In the case of `C/C(=C\c1ccc(C(=O)Nc2ccc3c(c2)OCCO3)cc1)C(F)(F)F` [Compound 102], the inhibition at 0.3 µM is 91%. Take `O=C(Nc1ccc2c(c1)NCCO2)c1ccc(C#CC2CCCC2)cc1` [Compound 106]: the inhibition at 0.3 µM was 5%.

Take `CC(C)(O)COc1cc(C(=O)Nc2ccc3c(c2)OCCO3)ccc1C#CC1CC1` [Compound 110]: the inhibition at 0.3 µM was found to be 1%. `CC1=Cc2c(cccc2NC(=O)c2ccc(/C=C/C(F)(F)F)cc2)NN1` [Compound 113]: the inhibition at 0.3 µM stood at 9%.

For `Cc1cc2c(NC(=O)c3ccc(/C=C/C(F)(F)F)cc3)cccc2cn1` [Compound 114], the inhibition at 0.3 µM was 90%. On to `O=C(Nc1ccc2nccnc2c1)c1ccc(/C=C/C(F)(F)F)cc1` [Compound 115], for which the inhibition at 0.3 µM was 90%. As to `CS(=O)(=O)OCC1COc2cc(NC(=O)c3ccc(C#CC4CCCC4)cc3)ccc2O1` (centres unmarked) [Compound 116], the “Low pH % Inhib. @ 0.3 μM” value amounted to 10%. As for `O=C(Nc1ccc2c(c1)OCCN2)c1ccc(C#CC2CCCC2)cc1` [Compound 117], the inhibition at 0.3 µM was 98%. On the same count and under the same terms, to `COc1cc(/C=C\C(F)(F)F)ccc1C(=O)Nc1ccc2c(c1)OCCN2` [Compound 120] belongs 19%. Same read-out and setting: the value for `COc1cc(/C=C\C(F)(F)F)ccc1C(=O)Nc1ccc2c(c1)OCCO2` [Compound 121] was 19%.

On to `COc1cc(C#CC(C)(C)C)ccc1C(=O)Nc1ccc2c(c1)OCCN2` [Compound 128], for which the inhibition at 0.3 µM was 12%. Turning to `O=C(Nc1ccc2c(c1)OCCN2)c1c(F)cc(C#CC2CC2)cc1F` [Compound 130], the inhibition at 0.3 µM came to 104%.

For `O=C(Nc1ccc2c(c1)OCCN2)c1ccc(/C=C\C(F)(F)F)cc1F` [Compound 135], the inhibition at 0.3 µM was 29%. On to `O=C(Nc1cc2c(cc1Cl)NCCO2)c1ccc(/C=C/C(F)(F)F)cc1` [Compound 136], for which the inhibition at 0.3 µM stood at 50%.

Regarding `CC(C)(C)C#Cc1ccc(C(=O)Nc2ccc3c(c2)OCCN3)c(F)c1` [Compound 137], the inhibition at 0.3 µM was determined as 103%. With `Cc1cc(C#CC2CCCC2)ccc1C(=O)Nc1ccc2c(c1)OCCN2` [Compound 139], the inhibition at 0.3 µM stood at 95%. Same read-out and setting: to `Cc1cc(C#CC2CCCC2)ccc1C(=O)Nc1ccc2c(c1)OCCO2` [Compound 140] belongs 33%.

Values taken from US20080300243A1, “Amide Derivatives as Ion-Channel Ligands and Pharmaceutical Compositions and Methods of Using the Same” (priority 2005, published 2008).
